The subject of data set [1] is patient of bipolar I disorders. The data set is described as follows: Clinical study: C-SSRS score / risk of suicidal behavior in patients treated with endoxifen enteric coated tablet. It is filed as in vivo, human. To be noted: day 21 (EOT). How it is done: Clinical study of an enteric coated tablet comprising endoxifen citrate formulation was carried out by administering to the patient doses of 2 mg to 16 mg of endoxifen citrate in an enteric coated tablet once per day for at least 21 days according to the present application.
This study was a multicenter, randomized, double-blind, double-dummy, active controlled, parallel study to assess the efficacy and safety of endoxifen enteric coated tablet 8 mg and divalproex sodium extended release tablet 1000 mg in patient of bipolar I disorders, this study also evaluated the risk of suicidal behavior in the patient and that has progressed during or after treatment with at least one drug(s) selected from lithium, valproate, carbamazepine or an atypical (except clozapine) or typical antipsychotic.
Total 110 patients were qualified for PP population.

The next data set relates to PKC. Conditions: relative to tamoxifen; cited from earlier work.

Structures are written as SMILES.

Consider `CC/C(=C(\c1ccc(O)cc1)c1ccc(OCCNC)cc1)c1ccccc1.O=C(O)CC(O)(CC(=O)O)C(=O)O` [Endoxifen, (Z)-1-(4-Hydroxyphenyl)-1-{4-[2-(monomethylamino)ethoxy]phenyl}-2-phenyl-1-butene citrate], for which, in data set [1], the “risk of suicidal behavior” value is reported as “zero”. In addition, the “potency in inhibiting the PKC activity compared to tamoxifen” value in the data set on PKC is “four-fold higher potency”.

These data come from US20210315844A1, “ENDOXIFEN FOR THE TREATMENT OF BIPOLAR I DISORDER” (Jina Pharmaceuticals, Inc., priority 2020, published 2021).
